Molecular target: T1, HIV-1 protease (Human immunodeficiency virus type 1 group M subtype B, UniProt P04585)
T1 construct: The protease (or proteinase) enzyme, consisting of only 99 amino acids
Test: In vitro HIV protease inhibitory assay (fluorescently labeled substrate, avidin-polystyrene particles)
Type: biochemical
Details: for inhibition at 3.3 µM: HIV-1 dose 3.3 μM; for inhibition at 10 µM: HIV-1 dose 10.0 μM; for inhibition at 30 µM: HIV-1 dose 30.0 μM
Protocol: The HIV protease screening assay is based on a fluorescently labeled substrate which can be resolved from nonlabeled cleavage product using avidin-polystyrene particles, 0.7-0.9 μm. The substrate is biotinylated at the amino terminal arginine and fluorescently labeled with fluorescein isothiocynate (FITC) at the carboxyl terminal lysine. This assay has been employed to detect novel, nonpeptidic inhibitors of HIV-1 protease. Substrate (20 μl of 0.2 μM), sample (10 μl of desired concentraion), and enzyme (10 μl of 0.1 μM) are added to a 96 well pandex plate. The assay is run in 0.1 M sodium acetate buffer at pH 5.5 in the presence of 1.0 M sodium chloride and 0.05% NP-40 and incubated in the dark for one hour at room temperature. Avidin coated polystyrene beads (40 μl of 0.1% (w/v)) are added and the incubation is continued in the dark for an additional half hour. The labeled cleavage product is separated from the unreacted substrate via filtration and is read on the IDEXX Screen Machine. (IDEXX Corporation--Portland, Me.) The data are analyzed by appropriate computer algorithms to ascertain percent inhibition values.
The Activity Table showing the results of the HIV Protease Inhibitory Assay appears below in TABLE 1. The table has three columns, the left column provides the code number of the compound for easy cross reference to structure tables and detailed procedures, the middle column provides the concentration of test compound and the column on the right provides the percent inhibition.

| inhibition at 3.3 µM [%] | inhibition at 10 µM [%] | inhibition at 30 µM [%] | Structure (SMILES) | HIV-1 Protease % Inhibition (test compound concentration 3.3 μM) [%] | HIV-1 Protease % Inhibition (test compound concentration 10.0 μM) [%] | HIV-1 Protease % Inhibition (test compound concentration 30.0 μM) [%] |
| --- | --- | --- | --- | --- | --- | --- |
| 120 | 120 | 117 | CCCC1(CCC)OC(=O)C(C(c2cccc(NS(=O)(=O)c3ccc(C#N)cc3)c2)C(C)(C)C)=C1O (stereo not drawn) [IX-25, Benzenesulfonamide, 4-Cyano-N-(3-(1-(4-hydroxy-2-oxo-5,5-dipropyl-2,5-dihydro-furan-3-yl)-2,2-dimethyl-propyl)-phenyl)-] | – | – | – |
| 109 | 101 | 112 | CCCC1(CCC)OC(=O)C(C(c2cccc(NS(=O)(=O)c3ccc(C#N)cc3)c2)C(C)C)=C1O (stereo not drawn) [IX-23, Benzenesulfonamide, 4-Cyano-N-(3-(1-(4-hydroxy-2-oxo-5,5-dipropyl-2,5-dihydro-furan-3-yl)-2-methyl-propyl)-phenyl)-] | – | – | – |
| 94.3 | 103 | 103 | O=C1OC(=CCCc2ccccc2)C(O)=C1C(c1ccccc1)C1CC1 (stereo not drawn) [JX-1, 3-(Cyclopropyl-phenyl-methyl)-4-hydroxy-5-(3-phenyl-propyl-idene)-5H-furan-2-one] | – | – | – |
| 93.5 | 103 | 88.3 | CCCC1(CCC)OC(=O)C(C(c2ccccc2)c2cccc(NS(=O)(=O)c3ccc(C#N)cc3)c2)=C1O (stereo not drawn) [IX-47, Benzenesulfonamide, 4-cyano-N-(3-((5,5-dipropyl-4-hydroxy-2-oxo-2,5-dihydro-3-furanyl)-phenyl-methyl)phenyl)-] | – | – | – |
| 59.9 | 86.5 | 89.4 | CCCC1(CCC)OC(=O)C(C(CC)c2cccc(N)c2)=C1O (stereo not drawn) [IX-13, 2(5H)-Furanone, 3-(1-(3-aminophenyl)propyl)-4-hydroxy-4-hydroxy-5,5-dipropyl-] | – | – | – |
| 101 | 102 | 106 | CCCC1(CCC)OC(=O)C(C(c2cccc(NS(=O)(=O)c3nc4ccccc4[nH]3)c2)C2CC2)=C1O (stereo not drawn) [IX-51] | – | – | – |
| 103 | 109 | 108 | CCC1(Cc2ccccc2)OC(=O)C(C(c2ccccc2)C(C)C)=C1O (stereo not drawn) [IX-9, 2(5H)-Furanone, 5-ethyl-4-hydroxy-3-(2-methy1-1-phenylpropyl)-5-(phenyl-methyl)-] | – | – | – |
| 37 | 79.6 | 83 | CCCC1(CCC)OC(=O)C(C(c2cccc(NS(=O)(=O)c3ncc[nH]3)c2)C2CC2)=C1O (stereo not drawn) [IX-36] | – | – | – |
| 91.9 | 94.3 | 80.9 | Cn1cnc(S(=O)(=O)Nc2cccc(C(C3=C(O)C(Cc4ccccc4)(Cc4ccccc4)OC3=O)C3CC3)c2)c1 (stereo not drawn) [IX-45, 1H-Imidazole-4-sulfonamide, N-(3-(cyclopropyl-(5,5-dibenzyl-4-hydroxy-2-oxo-2,5-dihydro-3-furanyl)methyl)phenyl)-1-methyl-] | – | – | – |
| 83 | 85 | 84.8 | CCCC1(CCC)OC(=O)C(C(c2cccc(NS(=O)(=O)c3ccc4ccccc4n3)c2)C2CC2)=C1O (stereo not drawn) [IX-38] | – | – | – |
| 90.3 | 92.3 | 80.3 | O=C1OC(Cc2ccccc2)(Cc2ccccc2)C(O)=C1C(c1cccc(NS(=O)(=O)c2ccc(F)cc2)c1)C1CC1 (stereo not drawn) [IX-44] | – | – | – |
| 99 | 99.4 | 97.6 | CCC1CCCCC12OC(=O)C(C(c1ccccc1)C1CC1)=C2O (single isomer, unassigned) [IX-33, 1-Oxaspiro[4.5]dec-3-en-2-one, 3-(cyclopropylphenylmethyl)-4-hydroxy-6-ethyl-] | – | – | – |
| 123 | 118 | 125 | CCCC1(Cc2ccccc2)OC(=O)C(C(c2cccc(NS(=O)(=O)c3ccc(C#N)cc3)c2)C(C)C)=C1O (stereo not drawn) [IX-28] | – | – | – |
| 94.3 | 96.3 | 94.5 | CCCC1(CCC)OC(=O)C(C(CC(C)C)c2cccc(NS(=O)(=O)c3cn(C)cn3)c2)=C1O (stereo not drawn) [IX-22] | – | – | – |
| 103 | 126 | 105 | CCCC1(CCC)OC(=O)C(C(c2cccc(NS(=O)(=O)c3cccc4ccccc34)c2)C2CC2)=C1O (stereo not drawn) [IX-19] | – | – | – |

Second part, the compound before the results:

| Structure (SMILES) | inhibition at 3.3 µM [%] | inhibition at 10 µM [%] | inhibition at 30 µM [%] | HIV-1 Protease % Inhibition (test compound concentration 3.3 μM) [%] | HIV-1 Protease % Inhibition (test compound concentration 10.0 μM) [%] | HIV-1 Protease % Inhibition (test compound concentration 30.0 μM) [%] |
| --- | --- | --- | --- | --- | --- | --- |
| CCCC1(CCC)OC(=O)C(C(c2cccc(NS(=O)(=O)c3ccc(C#N)c(C4CCCC4)c3)c2)C2CCCC2)=C1O (stereo not drawn) [IX-49, Benzenesulfonamide, 4-cyano 3-cyclpentyl-N-(3-(cyclopentyl(2,5-dihydro-4-hydroxy-2-oxo-5,5-dipropyl-3-furanyl)methyl)phenyl)-] | – | – | – | 86.97 | 94.94 | 78.56 |
| O=C1OC(C(O)C=Cc2ccccc2)C(O)=C1C(c1ccccc1)C1CC1 (stereo not drawn) [BX-7, 2(5H)-Furanone, 3-(cyclopropylphenylmethyl)-4-hydroxy-5-(1-hydroxy-3--phenyl-2-propenyl)-] | < 10 | 18 | 40 | – | – | – |
| CCC1(CCc2ccccc2)OC(=O)C(C(c2ccccc2)C2CC2)=C1O (stereo not drawn) [DX-7, 2(5H)-Furanone, 3-(cyclopropylphenylmethyl)-5-ethyl-4-hydroxy-5-(2-phenyl-ethyl)-] | 108 | 112 | 103 | – | – | – |
| CCCCC1(CCCc2ccccc2)OC(=O)C(C(c2ccccc2)C2CC2)=C1O (stereo not drawn) [DX-12, 2(5H)-Furanone, 5-butyl-3-(cyclopropylphenylmethyl)-4-hydroxy-5-(3-phenyl-propyl)-] | 116 | 129 | 123 | – | – | – |
| CCC(C1=C(O)C(CCc2ccccc2)OC1=O)c1ccccc1 (stereo not drawn) [BX-16, 2(5H)-Furanone, 4-hydroxy-5-(2-phenylethyl)-3-(1-phenylpropyl)-] | 41.4 | 71.4 | 80.3 | – | – | – |
| CC(C)C1(CCCc2ccccc2)OC(=O)C(C(c2ccccc2)C2CC2)=C1O (stereo not drawn) [DX-17, 2(5H)-Furanone, 3-(cyclopropylphenylmethyl)-4-hydroxy-5-(1-methylethyl)-5-(3--phenylpropyl)-] | 103 | 97.6 | 96 | – | – | – |
| C=CCC1(CCCc2ccccc2)OC(=O)C(C(c2ccccc2)C2CC2)=C1O (stereo not drawn) [DX-16, 2(5H)-Furanone, 3-(cyclopropylphenylmethyl)-4-hydroxy-5-(3-phenyl-propyl)-5-(2-propenyl)-] | 114 | 115 | 118 | – | – | – |
| CC1(CCc2ccccc2)OC(=O)C(C(c2ccccc2)C2CC2)=C1O (stereo not drawn) [CX-3, 2(5H)-Furanone, 3-(cyclopropylphenylmethyl)-4-hydroxy-5-methyl-5-(2--phenylethyl)-] | 98.1 | 111 | 118 | – | – | – |
| CCC(CC)C1OC(=O)C(C(c2ccccc2)C2CC2)=C1O (stereo not drawn) [GX-8, 2(5H)-Furanone, 3-(cyclopropylphenylmethyl)-5-(1-ethylpropyl)-4-hydroxy-] | 85.9 | 104 | 84.3 | – | – | – |
| CC(CCc1ccccc1)C1OC(=O)C(C(c2ccccc2)C2CC2)=C1O (stereo not drawn) [GX-3, 2(5H)-Furanone, 3-(cyclopropylphenylmethyl)-4-hydroxy-5-(1-methyl-3-phenyl-propyl)-] | 67.2 | 84.7 | 87.4 | – | – | – |
